Results reported in ChEMBL document CHEMBL1177645, “Crystallographic and docking studies of purine nucleoside phosphorylase from Mycobacterium tuberculosis” (Bioorg Med Chem, 2010).

These compounds were tested against T1, Purine nucleoside phosphorylase (Mycobacterium tuberculosis, UniProt P9WP01) (assay: Binding affinity to Mycobacterium tuberculosis purine nucleoside phosphorylase by spectrophotometric analysis).
T1 sequence (P9WP01 whole entry): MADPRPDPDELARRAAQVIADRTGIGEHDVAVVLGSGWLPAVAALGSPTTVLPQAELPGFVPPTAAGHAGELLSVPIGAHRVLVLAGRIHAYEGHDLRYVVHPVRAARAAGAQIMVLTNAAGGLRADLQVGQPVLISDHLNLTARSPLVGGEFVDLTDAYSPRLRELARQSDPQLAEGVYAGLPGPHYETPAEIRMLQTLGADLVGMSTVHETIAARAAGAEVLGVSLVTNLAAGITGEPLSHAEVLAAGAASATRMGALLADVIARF

Compound | Kd
CSc1nc(N)nc2[nH]cnc12 | 316 µM
CSc1ncnc2c1ncn2[C@@H]1O[C@H](CO)[C@@H](O)[C@H]1O | 12.6 µM
Nc1nc2c(ncn2COCCO)c(=O)[nH]1 [ACYCLOVIR] | 12.6 µM
Oc1ncnc2[nH]ncc12 [ALLOPURINOL] | 1000 µM
Nc1nc(O)c2ncn(COC(CO)CO)c2n1 [GANCICLOVIR] | 15.8 µM
Sc1ncnc2nc[nH]c12 [MERCAPTOPURINE ANHYDROUS] | 79.4 µM
O=c1[nH]c(=O)c2c[nH]nc2[nH]1 [OXYPURINOL] | 794 µM
